According to US20160045446A1, “ORAL ADMINISTRATION PREPARATION WITH MASKED BITTERNESS OF SILODOSIN” (KISSEI PHARMACEUTICAL CO., LTD., priority 2013, published 2016):

Assay: Compatibility test of silodosin with polymer-based materials
Format: physicochemical
Conditions: silodosin:material 1:1 by mass, 40° C., 75% relative humidity, 4 weeks, visual examination
Description: Silodosin and a variety of polymer-based materials were mixed in the mass ratio of 1:1. The mixtures were stored at 40° C. under 75% relative humidity for 4 weeks, and the changes on blending, i.e. incompatibility, were checked. Degradation products were quantified by a liquid chromatography method and a degree of discoloration was checked by visual examination.
Samples equivalent to 20 mg of silodosin were weighed, and test solutions were prepared and analyzed by the liquid chromatography method. Each peak area was measured by an automatic integration method and a content rate of degradation product (KMD-3241) (%) was calculated by an area percentage method.
Detector: Ultraviolet Absorption Photometer (Wavelength: 225 nm)

SMILES: C[C@H](Cc1cc2c(c(C(N)=O)c1)N(CCCO)CC2)NCCOc1ccccc1OCC(F)(F)F [Silodosin (reference), Silodosin]
- Color change (fading): −
